Calls of active or inactive are those of the source.
Tests used:
Format in all cases: functional
Aspergillus sydowii = assay: Antimicrobial activity against Aspergillus sydowii MTCC 4335 assessed as growth inhibition after 5 days by broth microdilution method
Aspergillus parasiticus = assay: Antimicrobial activity against Aspergillus parasiticus MTCC 2797 assessed as growth inhibition after 5 days by broth microdilution method
Aspergillus niger = assay: Antimicrobial activity against Aspergillus niger MTCC 404 assessed as growth inhibition after 5 days by broth microdilution method
Pichia kudriavzevii = assay: Antimicrobial activity against Pichia kudriavzevii MTCC 231 assessed as growth inhibition after 24 hr by broth microdilution method; settings: MTCC 231, 24 h
Candida albicans = assay: Antimicrobial activity against Candida albicans MTCC 3017 assessed as growth inhibition after 24 hr by broth microdilution method; settings: MTCC 3017, 24 h
Enterobacter cloacae = assay: Antimicrobial activity against Enterobacter cloacae MTCC 509 assessed as growth inhibition after 24 hr by broth microdilution method
Pseudomonas aeruginosa = assay: Antimicrobial activity against Pseudomonas aeruginosa MTCC 424 assessed as growth inhibition after 24 hr by broth microdilution method
Klebsiella pneumoniae = assay: Antimicrobial activity against Klebsiella pneumoniae MTCC 109 assessed as growth inhibition after 24 hr by broth microdilution method
Escherichia coli = assay: Antimicrobial activity against Escherichia coli MTCC 43 assessed as growth inhibition after 24 hr by broth microdilution method
Burkholderia cepacia = assay: Antimicrobial activity against Burkholderia cepacia MTCC 438 assessed as growth inhibition after 24 hr by broth microdilution method
Micrococcus luteus = assay: Antimicrobial activity against Micrococcus luteus MTCC 2470 assessed as growth inhibition after 24 hr by broth microdilution method
Bacillus subtilis = assay: Antimicrobial activity against Bacillus subtilis MTCC 121 assessed as growth inhibition after 24 hr by broth microdilution method
Staphylococcus aureus = assay: Antimicrobial activity against Staphylococcus aureus MTCC 3160 assessed as growth inhibition after 24 hr by broth microdilution method
Trichophyton rubrum = assay: Antimicrobial activity against Trichophyton rubrum MTCC 296 assessed as growth inhibition after 5 days by broth microdilution method; settings: MTCC 296, 120 h

Measured: MIC

O=C/C=C/c1ccccc1 [CINNAMALDEHYDE]
3.78 mM: Aspergillus sydowii; MTCC 4335, 120 h | Aspergillus parasiticus; MTCC 2797, 120 h | Klebsiella pneumoniae; MTCC 109, 24 h | Micrococcus luteus; MTCC 2470, 24 h
1.89 mM: Aspergillus niger; MTCC 404, 120 h | Enterobacter cloacae; MTCC 509, 24 h | Pseudomonas aeruginosa; MTCC 424, 24 h | Escherichia coli; MTCC 43, 24 h | Burkholderia cepacia; MTCC 438, 24 h | Bacillus subtilis; MTCC 121, 24 h | Staphylococcus aureus; MTCC 3160, 24 h
0.47 mM: Pichia kudriavzevii | Candida albicans | Trichophyton rubrum

COc1ccc(C=O)cc1 [ANISALDEHYDE]
1.83 mM: Aspergillus sydowii; MTCC 4335, 120 h | Aspergillus parasiticus; MTCC 2797, 120 h | Staphylococcus aureus; MTCC 3160, 24 h
3.67 mM: Pichia kudriavzevii | Candida albicans
14.7 mM: Enterobacter cloacae; MTCC 509, 24 h | Klebsiella pneumoniae; MTCC 109, 24 h | Escherichia coli; MTCC 43, 24 h | Bacillus subtilis; MTCC 121, 24 h
inactive: Pseudomonas aeruginosa | Micrococcus luteus
7.34 mM: Aspergillus niger; MTCC 404, 120 h
0.92 mM: Trichophyton rubrum

OC/C=C/c1ccccc1 [CINNAMIC ALCOHOL]
3.72 mM: Aspergillus sydowii; MTCC 4335, 120 h | Aspergillus parasiticus; MTCC 2797, 120 h | Aspergillus niger; MTCC 404, 120 h | Pichia kudriavzevii | Pseudomonas aeruginosa; MTCC 424, 24 h | Klebsiella pneumoniae; MTCC 109, 24 h
1.86 mM: Candida albicans | Burkholderia cepacia; MTCC 438, 24 h | Trichophyton rubrum
7.45 mM: Enterobacter cloacae; MTCC 509, 24 h | Escherichia coli; MTCC 43, 24 h | Micrococcus luteus; MTCC 2470, 24 h | Bacillus subtilis; MTCC 121, 24 h
14.9 mM: Staphylococcus aureus; MTCC 3160, 24 h

C=CCc1ccc2c(c1)OCO2 [SAFROLE]
inactive: Aspergillus sydowii | Aspergillus parasiticus | Aspergillus niger | Enterobacter cloacae | Pseudomonas aeruginosa | Klebsiella pneumoniae | Escherichia coli | Burkholderia cepacia | Micrococcus luteus | Bacillus subtilis | Staphylococcus aureus
6.16 mM: Pichia kudriavzevii | Candida albicans | Trichophyton rubrum

CCCCCCCCCCCCOC(=O)/C=C/c1ccccc1
0.79 mM: Candida albicans | Trichophyton rubrum
inactive: Aspergillus sydowii | Aspergillus parasiticus | Aspergillus niger | Enterobacter cloacae | Pseudomonas aeruginosa | Escherichia coli | Burkholderia cepacia | Micrococcus luteus | Bacillus subtilis | Staphylococcus aureus
3.16 mM: Klebsiella pneumoniae; MTCC 109, 24 h
0.39 mM: Pichia kudriavzevii
